Laboratory results reported in patent US10688093B2, “Methods, compositions, and uses of novel Fyn kinase inhibitors” (priority 2015, dated 2020).

Molecular target: full-length recombinant human FYN A (Homo sapiens (Human), UniProt P06241)
Test: ADP-Glo Kinase Assay of FYN kinase inhibition
Format: biochemical
Method in brief: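 ADP-Glo read-out of peptide phosphorylation after 90 min RT with 12.5 pmol ATP and 100 pg 12-mer substrate. Enzyme was N-GST full-length human FYN A from insect cells, 3 pg, pre-incubated 30 min with compound, 10 points from 10 μM top, 3-fold steps; IC50 from curve.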

[1] = primary screen, initial compounds
[2] = secondary screen, re-synthesized and expanded compounds

Sequence of full-length recombinant human FYN A (P06241 whole entry): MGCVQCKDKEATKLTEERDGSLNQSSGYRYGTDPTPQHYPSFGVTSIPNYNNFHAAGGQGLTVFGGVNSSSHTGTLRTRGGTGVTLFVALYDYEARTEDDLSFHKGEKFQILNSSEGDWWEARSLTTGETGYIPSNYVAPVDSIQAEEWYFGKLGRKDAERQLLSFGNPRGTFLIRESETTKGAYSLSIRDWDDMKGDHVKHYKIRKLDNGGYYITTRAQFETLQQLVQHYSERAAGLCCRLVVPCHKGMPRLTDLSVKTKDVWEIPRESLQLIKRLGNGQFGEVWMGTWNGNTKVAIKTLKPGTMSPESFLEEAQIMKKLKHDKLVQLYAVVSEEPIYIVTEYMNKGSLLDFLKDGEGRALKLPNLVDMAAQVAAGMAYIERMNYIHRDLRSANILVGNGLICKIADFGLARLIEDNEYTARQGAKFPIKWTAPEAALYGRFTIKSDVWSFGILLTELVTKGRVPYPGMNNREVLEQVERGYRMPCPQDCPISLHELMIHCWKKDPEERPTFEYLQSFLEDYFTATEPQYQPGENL

IC50 [1] [nM] | SMILES | IC50 [2] [nM]
1030 | O=C(NCCO)c1cccc(-c2cn3c(-c4ccc(O)cc4)cnc3cn2)c1 [388_0080_0192, N-(2-hydroxy-ethyl)-3-[3-(4-hydroxyphenyl)imidazo[1,2-a]pyrazin-6-yl]benzamide] | –
641 | O=C(NCCO)c1ccc(-c2cn3c(-c4ccc(O)cc4)cnc3cn2)cc1 [388_0080_0328, N-(2-hydroxyethyl)-4-[3-(4-hydroxyphenyl)imidazo[1,2-a]pyrazin-6-yl]benzamide] | –
6620 | Oc1ccc(-c2cnc3cnc(-c4cnn(Cc5ccccc5)c4)cn23)cc1 [388_0080_7469, 4-[6-(1-benzylpyrazol-4-yl)imidazo[1,2-a]pyrazin-3-yl]phenol] | –
1960 | O=C(NC1CC1)c1ccc(-c2cn3c(-c4ccc(O)cc4)cnc3cn2)cc1 [388_0080_7489, N-cyclopropyl-4-[3-(4-hydroxyphenyl)imidazo[1,2-a]pyrazin-6-yl]benzamide] | –
1930 | Nc1ccc(-c2cn3c(-c4ccc(O)cc4)cnc3cn2)cn1 [388_0080_7905, 4-[6-(6-amino-3-pyridyl)imidazo [1,2-a]pyrazin-3-yl]phenol] | –
2800 | COc1cc(-c2cnc3cnc(-c4cccc(NS(C)(=O)=O)c4)cn23)cc(OC)c1OC [388_0087_6488, N-[3-[3-(3,4,5-trimethoxyphenyl)imidazo[1,2-a]pyrazin-6-yl]phenyl] methane-sulfonamide] | –
10500 | COc1ccc(-c2cnc3cnc(-c4ccc(O)cc4)cn23)cc1 [388_0280_0080, 4-[3-(4-methoxyphenyl)imidazo[1,2-a]pyrazin-6-yl]phenol] | –
1350 | COc1cc(-c2cnc3cnc(-c4ccc(NCCN5CCOCC5)nc4)cn23)ccc1O [388_0314_0003, 2-methoxy-4-[6-[6-(2-morpholinoethyl-amino)-3-pyridyl]imidazo [1,2-a]pyrazin-3-yl]phenol] | –
1750 | COc1cc(-c2cnc3cnc(-c4ccccc4N(C)C)cn23)ccc1O [388_0314_0006, 4-[6-[2-(dimethylamino)phenyl]imidazo [1,2-a]pyrazin-3-yl]-2-methoxy-phenol] | –
1130 | COc1cc(-c2cnc3cnc(-c4ccc(N5CCN(C)CC5)nc4)cn23)ccc1O [388_0314_0016, 2-methoxy-4-[6-[6-(4-methylpiperazin-1-yl)-3-pyridyl]imidazo [1,2-a]pyrazin-3-yl]phenol] | –
3070 | COc1cc(-c2cnc3cnc(-c4cccnc4)cn23)ccc1O [388_0314_0071, 2-methoxy-4-[6-(3-pyridyl)imidazo[1,2-a]pyrazin-3-yl]phenol] | –
1360 | CCOc1cccc(-c2cn3c(-c4ccc(O)c(OC)c4)cnc3cn2)c1 [388_0314_0205, 4-[6-(3-ethoxyphenyl)imidazo[1,2-a]pyrazin-3-yl]-2-methoxy-phenol] | –
2540 | COc1cc(-c2cnc3cnc(-c4ccccc4Cl)cn23)ccc1O [388_0314_4027, 4-[6-(2-chlorophenyl)imidazo[1,2-a]pyrazin-3-yl]-2-methoxy-phenol] | –
1410 | COc1cc(-c2cnc3cnc(-c4ccc(N)nc4)cn23)ccc1O [388_0314_7905, 4-[6-(6-amino-3-pyridyl)imidazo [1,2-a]pyrazin-3-yl]-2-methoxy-phenol] | –
746 | COc1cc(-c2cnc3cnc(-c4cnn(C)c4)cn23)ccc1O [388_0314_8400, 2-methoxy-4-[6-(1-methylpyrazol-4-yl)imidazo[1,2-a]pyrazin-3-yl]phenol] | –
4070 | CC(=O)c1cccc(-c2cnc3cnc(-c4ccc(C(=O)NCCN(C)C)cc4)cn23)c1 [388_4145_0327, 4-[3-(3-acetylphenyl)imidazo[1,2-a]pyrazin-6-yl]-N-(2-dimethyl-aminoethyl) benzamide] | –
6250 | Oc1ccc(-c2cn3c(-c4cccs4)cnc3cn2)cc1 [388_4147_0080, 4-[3-(2-thienyl)imidazo [1,2-a]pyrazin-6-yl]phenol] | –
8520 | CN(C)CCNC(=O)c1ccc(-c2cn3c(-c4cccs4)cnc3cn2)cc1 [388_4147_0327, N-(2-dimethylamino-ethyl)-4-[3-(2-thienyl)imidazo [1,2-a]pyrazin-6-yl]benzamide] | –
5030 | c1csc(-c2cn3c(-c4cccs4)cnc3cn2)c1 [388_4147_4147, 3,6-bis(2-thienyl)imidazo [1,2-a]pyrazine] | –

IC50 [1] [nM] | SMILES | IC50 [2] [nM]
8160 | Nc1ccc(-c2cn3c(-c4cccs4)cnc3cn2)cn1 [388_4147_7905, 5-[3-(2-thienyl)imidazo [1,2-a]pyrazin-6-yl]pyridin-2-amine] | –
6690 | COc1cc(OC)cc(-c2cnc3cnc(-c4ccc(C(=O)NCCCN(C)C)cc4)cn23)c1 [388_7492_0180, 4-[3-(3,5-dimethoxyphenyl)imidazo[1,2-a]pyrazin-6-yl]-N-[3-(dimethyl-amino)propyl] benzamide] | –
14700 | CCCN1CCc2nc(Nc3cc(OC)c(OC)c(OC)c3)ncc2C1 [582_9377_5632, 6-propyl-N-(3,4,5-trimethoxy-phenyl)-7,8-dihydro-5H-pyrido[4,3-d]pyrimidin-2-amine] | –
4250 | CCNC(=O)N1CCc2nc(Nc3cc(OC)c(OC)c(OC)c3)ncc2C1 [582_9377_5725, N-ethyl-2-(3,4,5-trimethoxy-anilino)-7,8-dihydro-5H-pyrido[4,3-d]pyrimidine-6-carboxamide] | –
10100 | COc1ccccc1C(=O)N1Cc2cnc(Nc3cccc(N(C)C)c3)nc2C1 [585_9372_5053, [2-[3-(dimethylamino)anilino]-5,7-dihydropyrrolo [3,4-d]pyrimidin-6-yl]-(2-methoxyphenyl) methanone] | –
– | c1csc(CNc2ccc3ncc(-c4ccncc4)n3n2)c1 [BF000145941, 3-(4-pyridyl)-N-(2-thienyl-methyl)-[1,2-a]pyridazin-6-amine] | 105
– | c1cc(-c2cnc3ccc(NCc4ccc5c(c4)OCO5)nn23)ccn1 [BF000146108, N-(1,3-benzodioxol-5-ylmethyl)-3-(4-pyridyl)-imidazo[1,2-b]pyridazin-6-amine] | 297
– | COc1ccc(-c2cnc3ccc(NCc4ccc5c(c4)OCO5)nn23)cc1OC [BF000146114, N-(1,3-benzodioxol-5-ylmethyl)-3-[3,4-dimethoxy-phenyl)-imidazo[1,2-b]pyridazin-6-amine] | 6220
– | COc1cc(-c2cnc3ccc(NCc4ccc5c(c4)OCO5)nn23)ccc1O [BF000146126, 4-[6-(1,3-benzodioxol-5-ylmethyl-amino)-imidazo[1,2-b]pyridazin-3-yl]-2-methoxy-phenol] | 1310
– | Nc1cccc(-c2cnc3ccc(NC4CCOCC4)nn23)c1 [BF000146142, 3-(3-aminophenyl)-N-tetrahydro-pyran-4-yl-imidazo[1,2-b]pyridazin-6-amine] | 1420
– | COc1ccc(-c2cnc3ccc(NC4CCOCC4)nn23)cc1OC [BF000146153, 3-(3,4-dimethoxy-phenyl)-N-tetrahydro-pyran-4-yl-imidazo[1,2-b]pyridazin-6-amine] | 480
– | CC(=O)Nc1cccc(-c2cnc3ccc(NC4CCOCC4)nn23)c1 [BF000146155, N-[3-[6-(tetra-hydropyran-4-ylamino)-imidazo[1,2-b]pyridazin-3-yl)phenyl]-acetamide] | 397
– | COc1cccc(-c2cnc3ccc(NC4CCOCC4)nn23)c1 [BF000146183, 3-(3-methoxy-phenyl)-N-tetrahydro-pyran-4-yl-imidazo[1,2-b]pyridazin-6-amine] | 829
– | OCCCNc1ccc2ncc(-c3ccc4c(c3)OCO4)n2n1 [BF000146218, 3-[[3-(1,3-benzodioxol-5-yl)-imidazo[1,2-b]pyridazin-6-yl]amino]-propan-1-ol] | 708
– | COc1ccc(-c2cnc3ccc(NCCCO)nn23)cc1OC [BF000146224, 3-[[3-(3,4-dimethoxy-phenyl)-imidazo[1,2-b]pyridazin-6-yl]-amino]-propan-1-ol] | 725
– | COc1cc(-c2cnc3ccc(NCCCO)nn23)ccc1O [BF000146250, 4-[6-(3-hydroxy-propylamino)-imdazo[1,2-b]pyridazin-3-yl]-2-methoxy-phenol] | 206
– | CC(=O)Nc1cccc(-c2cnc3ccc(N[C@H](CO)C(C)C)nn23)c1 [BF000146300, N-[3-[6-[[(1S)-1-(hydroxy-methyl)-2-methyl-propyl]-amino]-imidazo[1,2-b]pyridazin-3-yl]-phenyl]acetamide] | 792
– | COc1cc(-c2cnc3ccc(N[C@H](CO)C(C)C)nn23)ccc1O [BF000146319, 4-[6-[[(1S)-1-(hydroxy-methyl)-2-methyl-propyl]-amino]-imidazo[1,2-b]pyridazin-3-yl]-2-methoxy-phenol] | 443
– | c1ccc(CNc2ccc3ncc(-c4ccc5c(c4)OCO5)n3n2)nc1 [BF000146330, 3-(1,3-benzodioxol-5-yl)-N-(2-pyridyl-methyl)-imidazo[1,2-b]pyridazin-6-amine] | 355

SMILES | IC50 [1] [nM] | IC50 [2] [nM]
CN1CCN(c2ccc(-c3cn4c(-c5ccc(O)cc5)cnc4cn3)cc2)CC1 [388_0080_0218, 4-[6-[4-(4-methyl-piperazin-1-yl)phenyl]imidazo [1,2-a]pyrazin-3-yl]phenol] | 678 | –
CN(C)C(=O)c1cccc(-c2cn3c(-c4ccc(O)cc4)cnc3cn2)c1 [388_0080_0349, 3-[3-(4-hydroxyphenyl)imidazo[1,2-a]pyrazin-6-yl]-N,N-dimethyl-benzamide] | 974 | –
COc1cc(-c2cnc3cnc(-c4ccc(C(=O)NCCCN(C)C)cc4)cn23)ccc1O [388_0314_0180, N-[3-(dimethylamino)propyl]-4-[3-(4-hydroxy-3-methoxy-phenyl)imidazo [1,2-a]pyrazin-6-yl]benzamide] | 606 | –
COc1cc(-c2cnc3cnc(-c4cccc(C(=O)NCCO)c4)cn23)ccc1O [388_0314_0192, N-(2-hydroxyethyl)-3-[3-(4-hydroxy-3-methoxy-phenyl)imidazo [1,2-a]pyrazin-6-yl]benzamide] | 896 | –
COc1cc(-c2cnc3cnc(-c4ccc(C(=O)NCCN(C)C)cc4)cn23)ccc1O [388_0314_0327, N-(2-dimethylamino-ethyl)-4-[3-(4-hydroxy-3-methoxy-phenyl)imidazo [1,2-a]pyrazin-6-yl]benzamide] | 440 | –
